Values joined by “and” are separate entries in the source; they are usually repeats but may differ in a detail not shown here. Equal entries are not always repeated.
How the values were obtained:
[1] = tested on: passively transferred EAE; assay: Passively transferred EAE induced with encephalitogenic MBP-specific T cell line (Example 23); type: in vivo, Lewis rats
Experimental: In order to study the effect of the agents of the present invention in vivo on a disease caused by T lymphocyte migration into a specific tissue, experiments were performed in the Lewis rat model of passively transferred EAE. Here, myelin basic protein (MBP)-specific T lymphocyte cell lines were generated from the draining lymph nodes of Lewis rats that had been immunised with MBP in Freund's complete adjuvant essentially according to the method of Ben-Nun et al. (1981) as described in Example 8. Thus, in this manner, donor T lymphocytes were generated from female 10 to 12 week old Lewis rats weighing 150 to 200 g. These rats were injected intradermally in a footpad of each hind foot with an emulsion of Guinea pig myelin basic protein (MBP; prepared according to the method of Deibler et al., 1972; incorporated herein by reference) in Freund's complete adjuvant (0.05 ml). The adjuvant emulsion was prepared by emulsifying equal volumes of a mixture of light mineral oil (Sigma) and normal saline containing Guinea pig myelin basic protein (0.5 mg/ml) and Mycobacterium butyricum (4 mg/ml; Difco). Thus, the total dose per rat was 50 micrograms of MBP and 400 micrograms of M. butyricum. Approximately 11 days following injection, the rats were euthanased and the draining lymph nodes (popliteal and inguinal) removed aseptically by blunt dissection and placed into mixed lymphocyte culture medium. This medium was prepared in the normal fashion from Dulbecco's Modified Eagle's Medium (DMEM; GIBCO, Grand Island, N.Y.) supplemented with glucose, folic acid, L-asparagine, sodium bicarbonate, L-glutamine, sodium pyruvate, HEPES, 2-mercaptoethanol (5×10^−5 M), penicillin, streptomycin, neomycin, and 2% fetal calf serum. A single cell suspension was prepared from the lymph nodes in the usual manner by gently pushing the nodes through a stainless steel screen. The cells were washed twice in the culture medium and following this procedure, any red blood cells were lysed in the usual manner by treating with a solution of ammonium chloride, EDTA and sodium hydrogen carbonate (pH 7.3) and the preparation strained (Falcon 2350 cell strainer). The cells were washed again in the lymphocyte culture medium. All cell preparative steps were performed on ice. These cells were cultured asceptically for 72 hours at 37° C. in a humidified atmosphere containing 7.5% carbon dioxide at a concentration of 5 million cells per milliliter in the presence of MBP (0.06 mg/ml). The cells were collected and the lymphoblasts were isolated by centrifugation on a Ficoll (Pharmacia, Uppsala, Sweden) gradient in an identical manner to that described by Ben Nun et al. (1981). The fraction containing ≧90% lymphoblasts was cultured and propagated in Eagle's medium supplemented with 15% of a concanavalin A-stimulated lymphocyte supernatant to provide growth factors, 10% fetal calf serum, nonessential amino acids (Bio-Lab, Jerusalem, Israel); sodium pyruvate, 2-mercapto ethanol and antibiotics without added antigen. The cells were plated in 100 mm petri dishes at a concentration of 0.2 million cells/ml and replated every 3 or 4 days. Prior to transfer into Lewis recipients, the cells were restimulated in the presence of MBP (0.01 mg/ml) and irradiated syngeneic thymocytes for 4 days.
These cells were highly encephalitogenic sine as few as 500,000 cells were capable of inducing disease when injected into naïve Lewis rats. Thus, in a typical experiment a group of 5 female Lewis rats, approximately 9 weeks old, weighing 110±15 grams were anesthetised with diethyl ether and implanted with mini-osmotic pumps (Alzet 2002, Alza Corp., Palo Alto Calif., USA) containing phosphoric acid mono-(6-propyl-3,4,5-trihydroxy-tetrahydro-pyran-2-ylmethyl) ester mono sodium salt dissolved in normal saline at a concentration that delivered the drug at a rate of 45 mg/kg/rat/day. […]

[2] = tested on: DTH response to 2,4-dinitrofluorobenzene (DNFB); assay: Delayed-type hypersensitivity (DTH) response to DNFB, ear swelling; type: in vivo, Balb/C mice
Description: In the present Example, a murine model of Type IV hypersensitivity or delayed-type hypersensitivity (DTH) response to cutaneous contact with the chemical hapten 2,4-dinitrofluorobenzene (DNFB) (Aldrich Chemical Company Inc, USA) was used as a model to measure the anti-inflammatory effects of compounds of the present invention. Specific pathogen-free 8-12 week old female Balb/C mice, weighing 19-21 g, were sensitised in a similar manner to that described by Klimuk et al., (Klimuk et al., 1999) by applying a solution of DNFB (0.5% in acetone:olive oil (4:1, v/v); 30 microliters,) onto a 2 cm^2 shaved area of the abdomen. After 7 days, the animals were anesthetised with diethyl ether and 8 microliters of DNFB (0.35% in acetone:olive oil (4:1, v/v) was applied to the dorsal and ventral surfaces of the right pinna. Prior to regaining consciousness, the mice were implanted intraperitoneally with Alzet 2001 mini-osmotic pumps (Alza Corp., Palo Alto Calif., USA) containing phosphoric acid mono-[6-(3-hexyloxy-propyl)-3,4,5-trihydroxy-tetrahydro-pyran-2-ylmethyl] ester, sodium salt in normal saline. The dose delivered was 50 mg/kg/day. Control animals for this group received saline delivered in identical mini-osmotic pumps. A second experimental group of mice received phosphoric acid mono-[3-(3,4,5-trihydroxy-6-phosphonooxymethyl-tetrahydro-pyran-2-yl)-propyl] ester disodium salt via one-week delivery Alzet 2001 mini-osmotic pumps implanted intraperitoneally. This compound was delivered at a dose of 40 mg/kg/day. Control animals for this group received saline delivered in identical mini-osmotic pumps. In a third experiment a separate group of mice received (3,4,5-trihydroxy-6-phosphonooxymethyl-tetrahydro-pyran-2-yl)-acetic acid disodium salt via one-week delivery Alzet 2001 mini-osmotic pumps that were placed intraperitoneally. This compound was delivered at 45 mg/kg/day. The control group for this experiment received identical mini-osmotic pumps containing normal saline. In a fourth experiment a group of mice received 3-phenyl-2-[2-(3,4,5-trihydroxy-6-phosphonooxymethyl-tetrahydro-pyran-2-yl)-acetylamino]-propionic acid monosodium salt via one-week delivery Alzet 2001 mini-osmotic pumps that were placed subcutaneously. This compound was delivered at 62 mg/kg/day. The control group for this experiment received identical mini-osmotic pumps containing normal saline. In a fifth experiment a group of mice received hexanoic acid 3-(3,4,5-trihydroxy-6-phosphonooxymethyl-tetrahydro-pyran-2-yl)-propyl ester sodium salt via one-week delivery Alzet 2001 mini-osmotic pumps that were placed subcutaneously. This compound was delivered at 40 mg/kg/day. The control group for this experiment received identical mini-osmotic pumps containing normal saline.
Twenty-four hours after challenge the mice were lightly anesthetised with diethyl ether and the thickness of the left and right pinnae measured (in millimeters) using a dial gauge micrometer (Interapid, Switzerland). Care was taken to measure only the outer two thirds of the ear. The increase in ear thickness initiated by the DTH response was determined by subtracting the measurement of the left ear (untreated) from the right ear (challenged).
In Table 4, values in the columns labeled Left and Right are measurements of ear thickness in millimeters of the control and challenged ears respectively.

[3] = tested on: passively transferred EAE; assay: Passively transferred EAE induced with concanavalin A stimulated spleen lymphoblasts (Example 24); type: in vivo, Lewis rats; design: key to Clinical score - Treated, Mean: 0 = asymptomatic to 5 = hind limb paralysis; conditions: 50 mg/kg/day subcutaneously; for Clinical score - Treated, Mean: group mean; for Clinical score - Treated: individual rats, scale 0 to 5, monosodium salt, 50 mg/kg/day
Experimental: In a similar type of experiment outlined in Example 20, and in order to study the effect of the agents of the present invention in vivo on a disease caused by T lymphocyte migration into a specific tissue, further experiments were performed in a Lewis rat model of passively transferred EAE. Here, myelin basic protein (MBP)-specific T lymphocytes were generated in spleens of Lewis rats that had been immunised with guinea pig MBP in Freund's complete adjuvant. Thus, in this manner donor T lymphocytes were generated from male 12-20 week old Lewis rats weighing 200 to 250 g. These rats were injected intradermally in a footpad of each hind foot with an emulsion of guinea pig myelin basic protein (MBP; prepared according to the method of Deibler et al., 1972; incorporated herein by reference) in Freund's complete adjuvant (0.1 ml). The adjuvant emulsion was prepared by emulsifying equal volumes of a mixture of 85% light mineral oil (0.8417 g/mL (Sigma)) plus 15% mannide monooleate (Sigma) containing Mycobacterium butyricum (4 mg/ml; Difco) and normal saline containing guinea pig myelin basic protein (0.25 mg/ml). Thus, the total dose per rat was 25 micrograms of MBP and 400 micrograms of M. butyricum. Ten days following injection, the rats were euthanased and the spleens removed aseptically by blunt dissection and placed into mixed lymphocyte culture medium. This medium was prepared in the normal fashion from Dulbecco's Modified Eagle's Medium (DMEM; GIBCO, Grand Island, N.Y.) supplemented with glucose (4 g/L), folic acid (6 mg/L), L-asparagine (36 mg/L), sodium bicarbonate (2 g/L), L-arginine (116 mg/L), L-glutamine (2 mM), sodium pyruvate (1 mM), HEPES (10 mM), 2-mercaptoethanol (5×10^−5 M), penicillin, streptomycin, neomycin, and 10% fetal calf serum. A single cell suspension was prepared from the spleens in the usual manner by gently pushing them through a stainless steel screen. The cells were washed twice and cultured asceptically for 72 hours at 37° C. in a humidified atmosphere containing 5% carbon dioxide at a concentration of 2 million cells per milliliter in the presence of concanavalin A (2 microgram/mL). The cells were collected and washed twice in Hanks balanced salt solution. Cells were resuspended in Hanks balanced salt solution and each recipient animal (10-12 weeks old female Lewis rats; 160-180 g) received 40-42.5 million lymphoblasts by lateral tail vein injection in a volume of 0.5 ml.
In a typical experiment 4-5 recipient rats were anesthetised with diethyl ether and implanted with mini-osmotic pumps (Alzet 2001, Alza Corp., Palo Alto Calif., USA) containing the test compound. A second group of 4 animals, the control group, under ether anesthesia, were implanted with Alzet 2001 pumps containing normal saline. Mini-osmotic pumps were implanted three days after cell transfer. Disease severity (clinical score) was scored on an arbitrary scale of severity ranging from 0 to 5 as follows: 0, asymptomatic; 1, flaccid distal half of tail; 2, entire tail flaccid; 3, ataxia, difficulty in righting reflex; 4, hind limb weakness; 5, hind limb paralysis. Mean maximum clinical scores were calculated and the disease index (DI) for each group was calculated as described in Example 20. The results of these experiments are outlined in Tables 6, 7 and 8.

CCCC1OC(COP(=O)([O-])O)C(O)C(O)C1O.[Na+] (stereo not drawn) [phosphoric acid mono-(6-propyl-3,4,5-trihydroxy-tetrahydro-pyran-2-ylmethyl) ester mono sodium salt]
drug-treated animals that developed disease ([1]; 45 mg/kg/rat/day, control group 5/5): 3/5 | lesions per section in the most affected animal ([1]; day 6 post lymphocyte transfer, histology): no more than 8 lesions per section | average lesions (per section) in spinal cord ([1]; day 6 post lymphocyte transfer, histology, control approximately 15 lesions/section): 3.5 lesions | Mean maximum clinical score ([1]; treated group, 45 mg/kg/rat/day, control group 2.0): 1.0 | disease index (DI) ([1]; treated group, 45 mg/kg/rat/day, control group DI 160): 40

CCCCCCOCCCC1OC(COP(=O)([O-])O)C(O)C(O)C1O.[Na+] (stereo not drawn) [phosphoric acid mono-[6-(3-hexyloxy-propyl)-3,4,5-trihydroxy-tetrahydro-pyran-2-ylmethyl] ester, monosodium salt]
Mean percentage decrease in ear swelling in treated animals ([2]; 50 mg/kg/day intraperitoneally, versus saline controls): Mean percentage decrease in ear swelling in treated animals: 36.7% | Mean Difference, Treated ([2]; group mean, 50 mg/kg/day intraperitoneally, saline control mean 0.098): 0.062 millimeters | Difference (right minus left ear), Treated ([2]; individual mice, 50 mg/kg/day, mini-osmotic pump intraperitoneally, 24 hours after challenge, monosodium salt): 0.03 millimeters and 0.05 millimeters (2×) and 0.08 millimeters and 0.1 millimeters | Right ear thickness, Treated ([2]; individual mice, challenged ear, 50 mg/kg/day, mini-osmotic pump intraperitoneally, 24 hours after challenge, monosodium salt): 0.25 millimeters (2×) and 0.26 millimeters and 0.3 millimeters and 0.32 millimeters | Left ear thickness, Treated ([2]; individual mice, control (unchallenged) ear, 50 mg/kg/day, mini-osmotic pump intraperitoneally, 24 hours after challenge, monosodium salt): 0.22 millimeters (3×) and 0.21 millimeters and 0.2 millimeters | Clinical score - Treated, Mean ([3]; day 5): 1 | Clinical score - Treated ([3]; day 5): 0.5 (2×) and 1 and 2 | Clinical score - Treated, Mean ([3]; day 6): 2.75 | Clinical score - Treated ([3]; day 6): 3 and 2 (2×) and 4 | Clinical score - Treated, Mean ([3]; day 7): 2.5 | Clinical score - Treated ([3]; day 7): 2 (3×) and 4 | Clinical score - Treated, Mean ([3]; day 8): 2.25 | Clinical score - Treated ([3]; day 8): 2 (3×) and 3 | Clinical score - Treated, Mean ([3]; day 9): 1.25 | Clinical score - Treated ([3]; day 9): 1 (2×) and 1.5 (2×) | Clinical score - Treated, Mean ([3]; day 10): 0.5 | Clinical score - Treated ([3]; day 10): 0 (2×) and 1 (2×) | Mean maximum clinical score ([3]; treated group, control 4.5): clinical score 3 | DI (disease index) ([3]; treated group, control DI 67.2): DI - 34.1 Mean maximum
